According to publication PMC9321742 (Viruses, 2022):
Like-named read-outs stand apart in the source and are kept apart here.

Tests used:
SARS-CoV-2 delta = experiment: microbe, parasite or virus in culture; format: cell-based; details: VERO E6, plus 0.5 µM P-gp inhibitor CP-100356, MOI 0.005, 72 h, read-out: IC50 Delta Mean ± SD
SARS-CoV-2 omicron BA.1 = experiment: microbe, parasite or virus in culture; format: cell-based; details: read-out: IC50 BA.1 Mean ± SD
SARS-CoV-2 omicron BA.2 = experiment: microbe, parasite or virus in culture; format: cell-based; details: read-out: IC50 BA.2 Mean ± SD
in vitro = details: African green monkey
[1] = Severe acute respiratory syndrome coronavirus 2, Vero C1008
[2] = Severe acute respiratory syndrome coronavirus 2, Vero C1008, VERO E6, plus 0.5 µM P-gp inhibitor CP-100356, MOI 0.005, 72 h

`O=c1nc(NO)ccn1[C@@H]1O[C@H](CO)[C@@H](O)[C@H]1O` [EIDD-1931] gave an IC50 (SARS-CoV-2 delta) of 1500 ± 700 nM, an IC50 (SARS-CoV-2 omicron BA.1) of 1000 ± 500 nM and an IC50 (SARS-CoV-2 omicron BA.2) of 800 ± 10 nM. For the same molecule, the CC50 (VERO E6 cells) was 43300 ± 6000 nM.

For `CC(C)(C)[C@H](NC(=O)C(F)(F)F)C(=O)N1C[C@H]2[C@@H]([C@H]1C(=O)N[C@H](C#N)C[C@@H]1CCNC1=O)C2(C)C` [Nirmatrelvir], the IC50 (SARS-CoV-2 delta; [1]) was 60 ± 10 nM, the IC50 (SARS-CoV-2 omicron BA.1; [2]) was 40 ± 20 nM and the IC50 (SARS-CoV-2 omicron BA.2; [2]) was 40 ± 10 nM. The CC50 (VERO E6 cells; African green monkey) was 40700 ± 4400 nM and the CC50 (in vitro) was 69600 ± 1000 nM.

Molecule `CCC(CC)COC(=O)[C@H](C)N[P@](=O)(OC[C@H]1O[C@@](C#N)(c2ccc3c(N)ncnn23)[C@H](O)[C@@H]1O)Oc1ccccc1` [Remdesivir] has an IC50 (SARS-CoV-2 delta; [1]) of 110 ± 80 nM, an IC50 (SARS-CoV-2 omicron BA.1; [2]) of 50 ± 40 nM and an IC50 (SARS-CoV-2 omicron BA.2; [2]) of 80 ± 10 nM.

In the case of CP-100356 hydrochloride, the “Decrease of cell viability” value (VERO E6 cells) is reported as 20%.
